From PubChem BioAssay (NCI)
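Where inhibition never reached the appropriate level, the endpoint shown equals the highest concentration tested. Otherwise, values were interpolated linearly from a five-concentration, 48-hour dose response in 96-well plates. GI50: concentration for 50% inhibition of growth. TGI marks complete inhibition of growth.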

Legend:
Experiment in all cases: inhibition of tumour cell growth, NCI panel, 48 h
SK-MEL-5 melanoma = system: SK-MEL-5 melanoma
M14 melanoma = system: M14 melanoma
ACHN renal = system: ACHN renal
SR leukemia = system: SR leukemia
HCC-2998 colon = system: HCC-2998 colon
SNB-75 CNS = system: SNB-75 CNS
RPMI-8226 leukemia = system: RPMI-8226 leukemia
SF-268 CNS = system: SF-268 CNS

Row | SMILES | TGI (SK-MEL-5 melanoma) [µM] | TGI (M14 melanoma) [µM] | TGI (ACHN renal) [µM] | TGI (SR leukemia) [µM] | TGI (HCC-2998 colon) [µM] | TGI (SNB-75 CNS) [µM] | TGI (RPMI-8226 leukemia) [µM] | TGI (SF-268 CNS) [µM] | GI50 (SK-MEL-5 melanoma) [µM] | GI50 (M14 melanoma) [µM] | GI50 (ACHN renal) [µM] | GI50 (SR leukemia) [µM] | GI50 (HCC-2998 colon) [µM] | GI50 (SNB-75 CNS) [µM] | GI50 (RPMI-8226 leukemia) [µM] | GI50 (SF-268 CNS) [µM]
1 | O=C1c2cccnc2C(=O)C2C3C=CC(C3)C12 (centres undefined) | 23.2 | 28 | 20.4 | 6.65 | 29.9 | 25.8 | 8.97 | 24.3 |  |  |  |  |  |  |  | 
2 | COc1cc2cc(C(=O)CCC(=O)O)sc2cc1OC | > 100 | > 100 | > 100 | > 100 | > 100 | > 100 | > 100 | > 100 | > 100 | > 100 | > 100 | 3.53 | > 100 | 12.7 | > 100 | > 100
3 | Cn1ccnc1C(=O)/C=C/c1ccc(C(=O)Nc2ccc(S(F)(F)(F)(F)F)cc2)cc1 | 5.99 | > 14.3 | > 14.3 | 10.3 | > 14.3 | > 14.3 | 2.68 | > 14.3 | 0.603 | 9.17 | 5.12 | 0.391 | 2.93 | 0.761 | 0.38 | 3.09
4 | CCCCOc1ccc(NC(=O)n2nc(N)c3ccccc32)cc1 | 28.2 | 42.2 | > 89.4 | 39.5 | 37 | 82.4 | 28.4 | > 100 | 14.9 | 17.7 | 22.7 | 16 | 17 | 29.6 | 2.63 | 20.3
5 | CCOC(=O)/C(=N\OC)C(O)C(F)(F)F (centres undefined) | > 100 | > 100 | > 100 | > 100 | > 100 | > 100 | > 100 | > 100 |  |  |  |  |  |  |  | 
6 | CC(=O)N1N=C(c2ccc(Nc3nc(Nc4ccc(Cl)cc4)nc(Nc4ccc(Cl)cc4)n3)cc2)CC1c1ccc([N+](=O)[O-])cc1 (centres undefined) | 15.8 | 43.4 | > 100 | 20.5 | > 80.1 | > 54.6 | 42.4 | > 100 | 3.22 | 6.8 | 5.49 | 2.66 | 19.3 | 3.71 | 3.61 | 7.14
7 | CCOc1ccc(-c2cnnn2-c2nonc2-n2cccc2)cc1 | 12.4 | 0.365 | > 100 | 41.4 | > 33 | 0.527 | 10.9 | > 100 | 0.245 | 0.122 | 0.689 | 0.104 | 0.364 | 0.138 | 0.32 | 0.736
8 | COc1ccc(-n2cc(-c3cc(OC)c(OC)c(OC)c3)nc2SCc2ccccc2)cc1 | 56.7 | > 100 | > 100 | > 100 | > 100 | 66.8 | > 100 | > 100 | 8.54 | > 100 | 78.8 | 54 | 45.5 | 7.04 | 5.5 | > 100
9 | CC(=O)Nc1ccc(/C=C/C(=O)c2ccccc2)cc1 | 30.3 | 33.3 | 29.6 | 22 | 29.7 | 42.2 | 17.8 | 37.5 | 16.2 | 16 | 13.1 | 3.24 | 15.5 | 18.2 | 3.69 | 15.9
10 | Cn1cc(C2=C(c3cccc(N)c3)C(=O)NC2=O)c2ccccc21 | > 25 | > 25 | > 25 | 24.8 | > 25 | > 25 | > 25 | > 25 | 9.66 | > 25 | 5.85 | 9.03 | > 25 | 0.0779 | > 21.4 | 24.6
11 | CCCCCc1nc2c(c3c1CCCC3)CCCC2 | 18.8 | 29.4 | 30.5 | 45.1 | 29.5 | 51.7 | 16.4 | 44.4 | 6.19 | 12.9 | 11.5 | 15.7 | 10.2 | 13.3 | 3.39 | 14.8
12 | COC(=O)C1=C(C)NC(C)=C(C(=O)OC)C1/C=C(\Cl)c1ccc(Cl)c(Cl)c1 | 28.5 | 30.2 | 25.5 | 22.4 | 31.1 | 22.9 | 13.7 | 28.4 | 15.2 | 16.6 | 12.8 | 3.3 | 17.3 | 8.25 | 1.8 | 13.1
13 | O=C(Nc1ccccc1)c1nn(-c2cc(S(=O)(=O)O)c([N+](=O)[O-])cc2Cl)[n+](-c2cc(S(=O)(=O)[O-])c([N+](=O)[O-])cc2Cl)n1 | > 100 | > 100 | > 100 | > 100 | > 100 | > 100 | > 100 | > 100 |  |  |  |  |  |  |  | 
14 | c1ccc2c(c1)sc1c3cnccc3ccc21 | > 100 | > 100 | > 100 | > 100 | > 100 | > 100 | > 100 | > 100 |  |  |  |  |  |  |  | 
15 | COc1cc(-n2cc(-c3ccc(F)cc3)nc2SCc2ccccc2)cc(OC)c1OC | > 100 | > 100 | > 100 | > 100 | > 100 | > 100 | > 100 | > 100 | 54.8 | > 100 | > 100 | > 100 | > 100 | > 100 | > 100 | > 100
16 | Cc1ccc2c(c1)c1nc3cc(C)c(C)cc3nc1n2CCN(C)C | 3.18 | 3.92 | 5.92 | 14.2 | 3.98 | 6.41 | 5.2 | 7.65 | 1.77 | 1.78 | 0.821 | 1.06 | 1.79 | 1.5 | 2.06 | 2.51
